Read-outs that look alike come from different tables or passages of the source.
Test: Pharmacokinetic experiments in rats (IV, oral suspension, oral solution)
Format: in vivo
Conditions: male, rat, plasma; for bioavailability: adjusted for dose, read-out: Bioavailability
Method: The oral suspension formulation was prepared by suspending the test article in 5% PEG-200/95% of a 0.5% solution of methylcellulose. The concentration of the test article was such that a dosing volume of 10 mL/kg delivered the intended dose level. The oral solution formulations of NVX-144 and NVX-412 were prepared by dissolving the test article in 10% by volume dimethyl acetamide, followed by 60% by volume PEG-400, and then adding slowly a solution of 30% Captisol® in 50 mM lactic acid to provide the remaining 30% of volume. The concentration of the test article was such that a dosing volume of 10 mL/kg delivered the intended dose level. The IV formulation of NVX-412 was prepared by dissolving the test article in 10% by volume dimethyl acetamide, followed by 10% by volume PEG-400, and then adding slowly a solution of 10% Captisol® in 50 mM lactic acid to provide the remaining 80% of volume. The concentration of the test articles was such that a dosing volume of 2.5 mL/kg delivered the intended dose level. The doses administered were based on the body weight of each animal taken shortly before dosing. The formulations were used immediately after preparation.
A total of 15 rats were assigned to the study. Five groups of three male rats each comprised the study. Each group was treated once by oral gavage or intravenous injection via the tail vein as specified in Table 3 below.
The animals were fasted overnight prior to dosing and the feed returned approximately 2 hours post-dosing. The dose for each animal was based on the most recent body weight. Oral doses were administered by gavage. Animals received 10 mL/kg per single oral dose. Intravenous doses were administered by tail vein injection. The dose for each animal was based on the most recent body weight. Animals were dosed at 2.5 mL/kg per single intravenous dose.
Blood was collected from the animals in Groups 1 through 5 for pharmacokinetic analysis. Approximately 0.3 mL of blood was collected in potassium EDTA tubes via the orbital plexus at four time points (30 minutes, 1 hour, 4 hours, and 8 hours post-dose) from each rat treated by the oral route, and the blood samples were processed to prepare plasma. Blood was collected at four time points (5 minutes, 30 minutes, 1 hour, and 2 hours post-dose) from each rat treated by the intravenous route, and the blood samples were processed to prepare plasma. Animals were terminated (without necropsy) following their final sample collection.
The whole blood samples were centrifuged (˜1500×g) for a minimum of 10 minutes in a refrigerated centrifuge (set at ˜5° C.). Plasma was prepared and transferred within 30 minutes of blood collection/centrifugation to appropriately labeled tubes. The tubes were then frozen and stored in the dark at ≦−70° C. until analysis. The plasma samples were analyzed by LC-MS/MS to determine the plasma concentrations of NVX-144 and NVX-412. Pharmacokinetic analysis of the plasma concentration data was conducted using non-compartmental analysis with WinNonlin Version 4.1.

[1] = iv, 5 mg/kg, IV 5 mg/kg, Mean of 3
[2] = iv, 5 mg/kg, IV 5 mg/kg, individual animals
[3] = oral, 20 mg/kg, Group 5, PO-Solution 20 mg/kg, Mean
[4] = po, 20 mg/kg, Group 3, PO-Suspension 20 mg/kg, individual animals
[5] = po, 20 mg/kg, Group 5, PO-Solution 20 mg/kg, Mean N=3

concentration at 0.083 h [1]: 1840 ng/mL | concentration at 0.083 h [2]: 1810 ng/mL | concentration at 0.5 h (iv, 5 mg/kg, IV 5 mg/kg, 0.5 h, Mean of 3): 477 ng/mL | concentration at 0.5 h (iv, 5 mg/kg, IV 5 mg/kg, 0.5 h, individual animals): 488 ng/mL | concentration at 1 h (iv, 5 mg/kg, IV 5 mg/kg, 1 h, Mean of 3): 273 ng/mL | concentration at 1 h (iv, 5 mg/kg, IV 5 mg/kg, 1 h, individual animals): 288 ng/mL | concentration at 2 h [1]: 165 ng/mL | concentration at 2 h [2]: 167 ng/mL | AUC [1]: 1070 ng·h/mL | AUC(0-inf) [1]: 1310 ng·h/mL | clearance [1]: 63.4 mL/min/kg | Cmax (iv, 5 mg/kg, IV 5 mg/kg, Mean of 3, read-out: Cmax): 1840 ng/mL | half-life (iv, 5 mg/kg, IV 5 mg/kg, Mean of 3, read-out: T ½ (converted)): 1 h | Tmax (iv, 5 mg/kg, IV 5 mg/kg, Mean of 3, read-out: Tmax): 0.083 h | Vd (iv, 5 mg/kg, IV 5 mg/kg, Mean of 3, read-out: Vss): 3.98 L/kg | AUC [2]: 1070 ng·h/mL | AUC(0-inf) [2]: 1320 ng·h/mL | clearance [2]: 63.3 mL/min/kg | Cmax (iv, 5 mg/kg, IV 5 mg/kg, individual animals, read-out: Cmax): 1810 ng/mL | half-life (iv, 5 mg/kg, IV 5 mg/kg, individual animals, read-out: T ½ (converted)): 1.01 h | Tmax (iv, 5 mg/kg, IV 5 mg/kg, individual animals, read-out: Tmax): 0.08 h | Vd (iv, 5 mg/kg, IV 5 mg/kg, individual animals, read-out: Vss): 3.96 L/kg | half-life (iv, 5 mg/kg, administered intravenously, range over animals, read-out: terminal plasma half-life): 0.93 to 1.15 h | concentration at 0.5 h (oral, 20 mg/kg, Group 3, PO-Suspension 20 mg/kg, 0.5 hr, Mean): 487 ng/mL | concentration at 0.5 h (oral, 20 mg/kg, Group 3, PO-Suspension 20 mg/kg, 0.5 hr, individual animals): 499 ng/mL | concentration at 1 h (oral, 20 mg/kg, Group 3, PO-Suspension 20 mg/kg, 1 hr, Mean): 525 ng/mL | concentration at 1 h (oral, 20 mg/kg, Group 3, PO-Suspension 20 mg/kg, 1 hr, individual animals): 525 ng/mL | concentration at 4 h (oral, 20 mg/kg, Group 3, PO-Suspension 20 mg/kg, Mean): 257 ng/mL | concentration at 4 h (oral, 20 mg/kg, Group 3, PO-Suspension 20 mg/kg, individual animals): 341 ng/mL | concentration at 8 h (oral, 20 mg/kg, Group 3, PO-Suspension 20 mg/kg, Mean, only 2 replicates available): 9.27 ng/mL | concentration at 0.5 h (oral, 20 mg/kg, Group 5, PO-Solution 20 mg/kg, 0.5 hr, Mean): 626 ng/mL | concentration at 0.5 h (oral, 20 mg/kg, Group 5, PO-Solution 20 mg/kg, 0.5 hr, individual animals): 732 ng/mL | concentration at 1 h (oral, 20 mg/kg, Group 5, PO-Solution 20 mg/kg, 1 hr, Mean): 601 ng/mL | concentration at 1 h (oral, 20 mg/kg, Group 5, PO-Solution 20 mg/kg, 1 hr, individual animals): 628 ng/mL | concentration at 4 h [3]: 243 ng/mL | concentration at 4 h (oral, 20 mg/kg, Group 5, PO-Solution 20 mg/kg, individual animals): 259 ng/mL | concentration at 8 h [3]: 16.2 ng/mL | AUC(0-inf) (po, 20 mg/kg, Group 3, PO-Suspension 20 mg/kg, Mean N=2): 2310 ng·h/mL | half-life (po, 20 mg/kg, Group 3, PO-Suspension 20 mg/kg, Mean N=2, read-out: T ½ (converted)): 1.2 h | bioavailability (po, 20 mg/kg, Group 3, PO-Suspension 20 mg/kg, Mean N=2, versus mean IV AUCINF): 43.9% | AUC (po, 20 mg/kg, Group 3, PO-Suspension 20 mg/kg, Mean N=3): 2070 ng·h/mL | Cmax (po, 20 mg/kg, Group 3, PO-Suspension 20 mg/kg, Mean N=3, read-out: Cmax): 525 ng/mL | Tmax (po, 20 mg/kg, Group 3, PO-Suspension 20 mg/kg, Mean N=3, read-out: Tmax): 1 h | AUC [4]: 2390 ng·h/mL | AUC(0-inf) [4]: 2410 ng·h/mL | Cmax (po, 20 mg/kg, Group 3, PO-Suspension 20 mg/kg, individual animals, read-out: Cmax): 525 ng/mL | half-life (po, 20 mg/kg, Group 3, PO-Suspension 20 mg/kg, individual animals, read-out: T ½ (converted)): 1.28 h | Tmax (po, 20 mg/kg, Group 3, PO-Suspension 20 mg/kg, individual animals, read-out: Tmax): 1 h | bioavailability (po, 20 mg/kg, Group 3, PO-Suspension 20 mg/kg, individual animals, versus mean IV AUCINF): 45.9% | AUC [5]: 2250 ng·h/mL | AUC(0-inf) [5]: 2290 ng·h/mL | Cmax (po, 20 mg/kg, Group 5, PO-Solution 20 mg/kg, Mean N=3, read-out: Cmax): 643 ng/mL | half-life (po, 20 mg/kg, Group 5, PO-Solution 20 mg/kg, Mean N=3, read-out: T ½ (converted)): 1.4 h | Tmax (po, 20 mg/kg, Group 5, PO-Solution 20 mg/kg, Mean N=3, read-out: Tmax): 0.67 h | bioavailability (po, 20 mg/kg, Group 5, PO-Solution 20 mg/kg, Mean N=3, versus mean IV AUCINF): 43.5%
SMILES: O=C(NNc1nc2cc(F)ccc2n2cccc12)c1cnccn1.O=C(O)C(=O)O [NVX-412, N′-(7-fluoropyrrolo[1,2a]quinoxalin-4-yl)pyrazine-2-carbohydrazide oxalic acid co-crystal]

From patent publication US8058437B2, “(Pyrroloquinoxalinyl) pyrazinecarbohydrazide-oxalic acid co-crystal for treatment of cancer and other diseases” (Novelix Pharmaceuticals, Inc., priority 2008, dated 2011)
